Patent publication US9776965B2, “Pyrrolidin-2-one and piperidin-2-one derivatives as 11-beta hydroxysteroid dehydrogenase inhibitors” (Janssen Pharmaceutica N.V., priority 2004, dated 2017)

Tests used:
11b-HSD1 [1] = target: 11b-HSD1 (Homo sapiens, UniProt P28845); assay: Enzymatic assay, 11b-HSD1 dependent conversion of cortisone into cortisol (reductase activity); format: biochemical; details: recombinant protein, 2 μM cortisone, 45 min at 37 C; read-out: [C1] HSD1-prot Reduct Score
Protocol: The effects of compounds on 11b-HSD1 dependent conversion of cortisone into cortisol (reductase activity) was studied in a reaction mixture containing 30 mM Tris-HCl buffer pH 7.2, 180 μM NADPH, 1 mM EDTA, 2 μM cortisone, 1 μl drug and/or solvent and 11 μg recombinant protein in a final volume of 100 μl.
All incubations were performed for 45 min at 37 C in a water bath. The reaction was stopped by adding 100 μl acetonitrile containing 20 μg corticosterone as internal standard. After centrifugation, the product formation was analysed in the supernatant by HPLC on a Hypersyl BDS-C18 column using 0.05 mM ammonium acetate/methanol (50/50) as solvent. In all of the aforementioned assays, the drugs to be tested were taken from a stock solution and tested at a final concentration ranging from […] to 3.10^−9M. From the thus obtained dose response curves, the pIC50 value was calculated and scored as follows; Score 1=pIC50 value<5, Score 2=pIC50 value in the range of 5 to 6, Score 3=pIC50 value>6. (in this table NT stands for Not Tested).

11b-HSD1 [2] = target: T1, 11b-HSD1 (Mus musculus, UniProt P50172); assay: Cellular assay, 11b-HSD1 activity in differentiated 3T3-L1 cells; format: cell-based; details: 4 hour pre-incubation, read-out: [C2] HSD1 cellular 3T3-L1 Score
T1 construct: Fibroblasts were differentiated into adipocytes; endogenous in cells; host or cells: differentiated 3T3-L1 cells (ATCC-CL-173)
Protocol: The effects on 11b-HSD1 activity was measured in differentiated 3T3-L1 cells and rat hepatocytes.
Mouse fibroblast 3T3-L1 cells (ATCC-CL-173) were seeded at a density of 16500 cells/ml in 12 well plates and grown for 7 days in DMEM medium (supplemented with 10% heat inactivated foetal calf serum, 2 mM glutamine and 25 mg gentamycin) at 37 C in a humidified 5% CO2 atmosphere. Medium was refreshed twice a week. Fibroblasts were differentiated into adipocytes at 37 C in a 5% CO2 humidified atmosphere in growth medium containing 2 μg/ml insulin, 55 μg/ml IBMX and 39.2 μg/ml dexamethasone.
Following a 4 hour pre-incubation with test compound, 0.5 μCi ^3H-cortisone or dehydrocorticosterone, was added to the cultures. One hour later, the medium was extracted on Extrelut^3-columns with 15 ml diethyl ether and the extract was analysed by HPLC as described above.
As for the enzymatic assays, the compounds to be tested were taken from a stock solution and tested at a final concentration ranging from […] to 3.10^−9M. From the thus obtained dose response curves, the pIC50 value was calculated and scored as follows; Score 1=pIC50 value<5, Score 2=pIC50 value in the range of 5 to 6, Score 3=pIC50 value>6. Some of the thus obtained results are summarized in the table below (in this table NT stands for Not Tested).

T1 sequence (P50172 whole entry): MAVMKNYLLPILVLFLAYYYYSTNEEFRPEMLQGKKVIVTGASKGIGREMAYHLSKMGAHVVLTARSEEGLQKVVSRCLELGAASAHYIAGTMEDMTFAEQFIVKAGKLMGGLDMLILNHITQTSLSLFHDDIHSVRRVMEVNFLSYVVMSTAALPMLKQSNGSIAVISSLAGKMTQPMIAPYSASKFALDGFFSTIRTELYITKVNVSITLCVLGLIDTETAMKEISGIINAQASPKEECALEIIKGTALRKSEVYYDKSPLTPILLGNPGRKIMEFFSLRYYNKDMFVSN
Sequence of 11b-HSD1 (Homo sapiens, UniProt P28845) (P28845 whole entry): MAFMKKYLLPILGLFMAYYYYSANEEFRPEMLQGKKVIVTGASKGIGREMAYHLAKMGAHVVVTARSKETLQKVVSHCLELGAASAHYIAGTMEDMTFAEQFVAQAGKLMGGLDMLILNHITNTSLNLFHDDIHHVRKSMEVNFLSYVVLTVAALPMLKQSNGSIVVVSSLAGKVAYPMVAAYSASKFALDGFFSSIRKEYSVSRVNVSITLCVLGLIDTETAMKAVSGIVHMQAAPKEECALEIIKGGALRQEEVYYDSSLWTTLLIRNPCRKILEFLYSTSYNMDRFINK

Row | SMILES | IC50 (11b-HSD1 [1]) | IC50 (11b-HSD1 [2])
1 | CO[C@H](C[C@@H]1CCN([C@@H](C)c2ccccc2)C1=O)c1ccccc1 [Compound 156] | 1 to 10 µM | 1 to 10 µM
2 | C[C@@H](c1ccccc1)N1CC[C@H]([C@@](C)(O)c2ccc(CCBr)cc2)C1=O [Compound 117] | < 1 µM | < 1 µM
3 | CCC(CC1(CC(CC)c2ccccc2)CCN([C@@H](C)c2ccccc2)C1=O)c1ccccc1 (mixture of isomers) [Compound 165] | > 10 µM | > 10 µM
4 | COc1ccc(CC[C@H]2CCN([C@@H](C)c3ccccc3)C2=O)cc1 [Compound 133] | > 10 µM | 1 to 10 µM
5 | COc1ccc(C[C@H]2CCN([C@@H](C)c3ccccc3)C2=O)cc1 [Compound 21] | 1 to 10 µM | < 1 µM
6 | Cc1ccccc1C[C@@]1(C)CCN([C@@H](C)c2ccccc2)C1=O [Compound 143] | > 10 µM | 1 to 10 µM
7 | COc1ccc(CC[C@@H]2CCN([C@@H](C)c3ccccc3)C2=O)cc1OC [Compound 125] | > 10 µM | > 10 µM
8 | C[C@H](c1ccccc1)[C@@H]1CCN([C@@H](C)c2ccccc2)C1=O [Compound 161] | 1 to 10 µM | > 10 µM
9 | COc1cc(C[C@H]2CCN([C@@H](C)c3ccccc3)C2=O)ccc1OCc1ccccc1 [Compound 122] | 1 to 10 µM | 1 to 10 µM
10 | C[C@@H](c1ccccc1)N1CC[C@@H](Cc2cc3c(cc2Cl)OCO3)C1=O [Compound 155] | < 1 µM | < 1 µM
11 | C[C@@H](c1ccccc1)N1CC[C@@H]([C@](C)(O)c2ccc(CCBr)cc2)C1=O [Compound 118] | > 10 µM | 1 to 10 µM
12 | COc1ccccc1CC[C@H]1CCN([C@@H](C)c2ccccc2)C1=O [Compound 124] | 1 to 10 µM | 1 to 10 µM
13 | CC[C@]1(Cc2ccccc2C)CCN([C@H](C)c2ccccc2)C1=O [Compound 145] | > 10 µM | > 10 µM
14 | COc1ccc(CC[C@@H]2CCN([C@@H](C)c3ccccc3)C2=O)cc1 [Compound 132] | 1 to 10 µM | 1 to 10 µM
15 | CC[C@@]1(Cc2ccccc2C)CCN([C@H](C)c2ccccc2)C1=O [Compound 144] | > 10 µM | > 10 µM
16 | CC[C@H](C[C@@H]1CCN([C@@H](C)c2ccccc2)C1=O)c1ccccc1 [Compound 138] | 1 to 10 µM | 1 to 10 µM
17 | Cc1ccccc1CC[C@H]1CCN([C@@H](C)c2ccccc2)C1=O [Compound 128] | 1 to 10 µM | 1 to 10 µM
18 | C[C@@H](c1ccccc1)N1CCC(CCc2cccc3ccccc23)(CCc2cccc3ccccc23)C1=O [Compound 116] | > 10 µM | > 10 µM
19 | CCCC1(Cc2ccccc2C)CCN([C@@H](C)c2ccccc2)C1=O (mixture of isomers) [Compound 146] | > 10 µM | > 10 µM
20 | COc1cc(C[C@@H]2CCN([C@@H](C)c3ccccc3)C2=O)ccc1OCc1ccccc1 [Compound 121] | > 10 µM | > 10 µM
21 | CO[C@H](C[C@H]1CCN([C@@H](C)c2ccccc2)C1=O)c1ccccc1 [Compound 157] | 1 to 10 µM | < 1 µM
22 | C[C@H](c1ccccc1)N1CC[C@H](Cc2ccccc2C#N)C1=O [Compound 64] | > 10 µM | 1 to 10 µM

Now from value to compound:

Row | IC50 (11b-HSD1 [1]) | IC50 (11b-HSD1 [2]) | SMILES
23 | > 10 µM | 1 to 10 µM | O=C1C(Cc2cccc(Cl)c2)CCN1Cc1ccccc1 (stereo not shown) [Compound 51]
24 | < 1 µM | 1 to 10 µM | C[C@@H](c1ccccc1)N1CC[C@H](Cc2cccc(Cl)c2Cl)C1=O [Compound 11]
25 | > 10 µM | > 10 µM | COC[C@@H](c1ccccc1)N1CC[C@@H](Cc2c(Cl)cccc2Cl)C1=O [Compound 101]
26 | > 10 µM | 1 to 10 µM | Cc1cccc(CC2CCN(Cc3ccccc3)C2=O)c1 (stereo not shown) [Compound 56]
27 | > 10 µM | 1 to 10 µM | Cc1cccc(C[C@H]2CCN([C@H](C)c3ccccc3)C2=O)c1 [Compound 68]
28 | > 10 µM | < 1 µM | O=C1C(Cc2c(Cl)cccc2Cl)CCN1CCCc1ccccc1 (stereo not shown) [Compound 114]
29 | > 10 µM | 1 to 10 µM | C[C@H](c1ccccc1)N1CC[C@H](Cc2cccc(Cl)c2)C1=O [Compound 47]
30 | > 10 µM | 1 to 10 µM | C[C@H](c1ccccc1)N1CC[C@@H](Cc2ccccc2)C1=O [Compound 37]
31 | > 10 µM | 1 to 10 µM | O=C1C(Cc2ccccc2)CCN1Cc1ccccc1 (stereo not shown) [Compound 61]
32 | 1 to 10 µM | 1 to 10 µM | O=C1C(Cc2ccc(F)cc2Cl)CCN1CCCc1ccccc1 (stereo not shown) [Compound 112]
33 | < 1 µM | > 10 µM | Cc1cccc(C)c1CC1CCN(CCc2ccccc2)C1=O (stereo not shown) [Compound 83]
34 | 1 to 10 µM | > 10 µM | COC[C@@H](c1ccccc1)N1CC[C@H](Cc2c(Cl)cccc2Cl)C1=O [Compound 100]
35 | > 10 µM | 1 to 10 µM | COc1ccc(C[C@@H]2CCN([C@@H](C)c3ccccc3)C2=O)cc1 [Compound 22]
36 | > 10 µM | 1 to 10 µM | Cc1ccccc1CC1CCN(Cc2ccccc2)C1=O (stereo not shown) [Compound 55]
37 | 1 to 10 µM | 1 to 10 µM | C[C@@H](c1ccccc1)N1CC[C@@H](Cc2cccc(Cl)c2Cl)C1=O [Compound 12]
38 | 1 to 10 µM | 1 to 10 µM | C[C@@H](c1ccccc1)N1CC[C@H](Cc2cccc(Cl)c2)C1=O [Compound 17]

Row | IC50 (11b-HSD1 [1]) | IC50 (11b-HSD1 [2]) | SMILES
39 | 1 to 10 µM | > 10 µM | O=C1[C@H](Cc2c(Cl)cccc2Cl)CCN1[C@@H](CO)c1ccccc1 [Compound 107]
40 | 1 to 10 µM | 1 to 10 µM | Cc1ccccc1CC1CCN(CCCc2ccccc2)C1=O (stereo not shown) [Compound 110]
41 | 1 to 10 µM | > 10 µM | CC[C@H](c1ccccc1)N1CC[C@H](Cc2c(Cl)cccc2Cl)C1=O [Compound 96]
42 | > 10 µM | 1 to 10 µM | O=C1C(Cc2cccc(O)c2)CCN1Cc1ccccc1 (stereo not shown) [Compound 53]
43 | 1 to 10 µM | > 10 µM | COc1cccc(CC2CCN(CCc3ccccc3)C2=O)c1 (stereo not shown) [Compound 24]
44 | > 10 µM | > 10 µM | COc1cccc(C[C@@H]2CCN([C@@H](C)c3ccccc3)C2=O)c1 [Compound 20]
45 | > 10 µM | 1 to 10 µM | COc1cc(CC2CCN(CCc3ccccc3)C2=O)ccc1OCc1ccccc1 (stereo not shown) [Compound 109]
46 | > 10 µM | > 10 µM | O=C1C(Cc2c(Cl)cccc2Cl)CCN1[C@@H](Cc1ccccc1)c1ccccc1 (stereo partly shown) [Compound 102]
47 | > 10 µM | 1 to 10 µM | COc1cccc(C[C@@H]2CCN([C@H](C)c3ccccc3)C2=O)c1 [Compound 52]
48 | < 1 µM | < 1 µM | O=C1[C@H](Cc2c(Cl)cccc2Cl)CCN1[C@H](CO)c1ccccc1 [Compound 105]
49 | 1 to 10 µM | < 1 µM | COc1cccc(C[C@H]2CCN([C@@H](C)c3ccccc3)C2=O)c1 [Compound 19]
50 | 1 to 10 µM | 1 to 10 µM | Cc1cccc(C[C@H]2CCN([C@@H](C)c3ccccc3)C2=O)c1 [Compound 15]
51 | 1 to 10 µM | < 1 µM | O=C1C(Cc2cc3c(cc2Cl)OCO3)CCN1CCc1ccccc1 (stereo not shown) [Compound 86]
52 | 1 to 10 µM | 1 to 10 µM | O=C1C(Cc2cccc(Cl)c2Cl)CCN1Cc1ccccc1 (stereo not shown) [Compound 58]
53 | > 10 µM | < 1 µM | COc1ccccc1CC1CCN(CCc2ccccc2)C1=O (stereo not shown) [Compound 33]
